Test: in vitro
Settings: human, hela cells, % viability

Row | Structure (SMILES) | viability at 28.5 h, 10 µM [%]
1 | O=C(O)c1oc2ccccc2c1CN1CCN(c2ccccc2)CC1 [CBK286948] | 115
2 | O=[N+]([O-])c1ccc(Sc2ccccc2C2=NCCCN2)nc1 [CBK006747C] | 101
3 | Cc1c(C(=O)N(CC(=O)O)C2CC2)nnn1-c1ccc(Cl)cc1F [CBK304738] | 91.1
4 | CC(C)=C(NC(=O)c1ccccc1)C(=O)Nc1cccc(C(=O)O)c1 [CBK058180] | 105
5 | CC(=O)NCCNC(=O)c1ccc(-c2ccccc2)nc1NCCc1ccccn1 [CBK076595] | 91.3
6 | O=C(Oc1cccc(-c2cnc3ccccc3n2)c1)c1cccc(S(=O)(=O)N2CCOCC2)c1 [CBK262096] | 89.3
7 | CCCCC(c1cccnc1)N(C)C(=O)c1cccn(C)c1=O (stereo not shown) [CBK307496] | 114
8 | O=C(NCCCc1ccccn1)c1cnn(-c2ccc(F)cc2)c1 [CBK283287] | 87.6
9 | COc1cc(C#N)ccc1Oc1ccc([N+](=O)[O-])cn1 [CBK002569] | 108
10 | O=C(OCC#CCSc1nnc(-c2ccncc2)o1)c1sc2ccccc2c1Cl [CBK265677] | 94.6
11 | O=c1cc(CN2CCN(c3ccccc3)CC2)occ1O [CBK288392] | 89
12 | Cc1ccc(C(=O)NCCNC(=O)CN2CCCC2)cc1 [CBK264103] | 92.5
13 | CN(C)C(CNC(=O)Nc1cccc(C(=O)NC2CC2)c1)c1cccs1 (stereo not shown) [CBK305565] | 115
14 | CC(=O)NCCSc1cncc(NC(C)C)n1 [CBK105291] | 84.9
15 | CC1(C)C(=O)Nc2ccccc2N1C(=O)COc1ncnc2sc3c(c12)CCC3 [CBK297530] | 89.9
16 | Cc1nc(CN2CCC(C(=O)c3ccc(F)cc3)CC2)cs1 [CBK149147] | 103
17 | CC(=O)Nc1ccc(NC(=O)c2cc(-c3ccc(Cl)cc3Cl)nc3ccccc23)cc1 [CBK265080] | 80.8
18 | Cc1ccccc1Nc1nc(N)nc(CN2CCN(C)CC2)n1 [CBK304217] | 89.9
19 | COC1(CNC(=O)c2cc3ccccc3[nH]2)CCSC1 (stereo not shown) [CBK304605] | 97.9
20 | CC(=O)c1[nH]c(C)c(C(=O)N(C)Cc2cc(-c3ccncc3)no2)c1C [CBK306681] | 97
21 | CCOC(=O)C1(C2CCCCC2)CCN(C(=O)CC2NC(=O)NC2=O)CC1 (stereo not shown) [CBK136938] | 100

Row | Structure (SMILES) | viability at 28.5 h, 10 µM [%]
22 | O=C(N/N=C/c1ccc(O)cc1)C(=O)N/N=C/c1ccc(O)cc1 [CBK261625] | 88.7
23 | O=C(O)CCNC(=O)/C(=C/c1ccc(Cl)cc1)NC(=O)c1ccccc1 [CBK300484] | 86.5
24 | CN(CCN(C)C(=O)c1cc2sccc2[nH]1)CC(F)F [CBK306014] | 103
25 | Cc1ccc(-c2cncc(NCc3cccs3)n2)cc1C [CBK065967] | 106
26 | O=C(CCCN1C(=O)/C(=C/c2ccc3c(c2)OCO3)SC1=S)Nc1ccc([N+](=O)[O-])cc1 [CBK264623] | 105
27 | O=C(O)c1sccc1S(=O)(=O)Nc1ccc(Cc2nc3ccccc3s2)cc1 [CBK295286] | 92.8
28 | FC(F)(F)c1cccc(Sc2cccc3ccccc23)n1 [CBK091449] | 94.8
29 | N#Cc1ccc(C(=O)Nc2nnc(C3=COCCO3)o2)cc1 [CBK287411] | 83.3
30 | O=C1CC2(CCN(C(=O)c3ccoc3)CC2)Oc2ccc3ccccc3c21 [CBK156444] | 91
31 | Cc1cc(C)n(C(CC(=O)c2ccccc2)C(=O)O)n1 (stereo not shown) [CBK287209] | 90.8
32 | Cc1[nH]c2ccccc2c1-c1csc(-c2ccncc2)n1 [CBK264371] | 96.8
33 | CCNC(=S)N1CCN(C(=O)c2cccc(OC)c2)CC1 [CBK154778] | 97.3
34 | COc1ccc(-c2nnc(SCC(=O)NC(=O)c3ccccc3)n2CC(C)C)cc1 [CBK297527] | 101
35 | Cc1nc2ccc(C(=O)N(C)CCN(C)C)cn2c1N(C)CC1CCCCC1 [CBK145894] | 96.7
36 | CC1CCCN(CC(O)COCc2ccc3c(c2)OCO3)C1 (stereo not shown) [CBK262830C] | 105
37 | CCN(CC)C(=O)C1CCCN(C(=O)Nc2ccc3c(c2)OCCO3)C1 (stereo not shown) [CBK156135] | 92.3
38 | O=c1cc(CN2CCOCC2)oc2c(OCc3nnnn3C3CC3)cccc12 [CBK007813] | 101
39 | c1ccc(-c2nc3cnccn3c2Nc2ccc3c(c2)OCCO3)cc1 [CBK287857] | 94.4
40 | O=C(O)C1(Oc2ccc3ncccc3c2)CCN(C2CCCCC2)CC1 [CBK306591] | 92.4
41 | Cc1cccnc1C(NC(=O)C1CCN(C/C=C/c2ccco2)CC1)c1ccc(Cl)cc1 (stereo not shown) [CBK148201] | 90
42 | Oc1ccc2ccccc2c1/C=N/Nc1nc(NCc2ccccc2)nc(N2CCOCC2)n1 [CBK261233] | 93.8

Row | Structure (SMILES) | viability at 28.5 h, 10 µM [%]
43 | COc1ccc(C(C)(C)C)cc1NC(=O)c1ccncc1 [CBK288248] | 92
44 | CC(Cn1cccn1)C(=O)N1CCc2sccc2C1C (stereo not shown) [CBK282074] | 103
45 | CCN(CC)CCn1c(OC)cc(=O)[nH]c1=O [CBK264411] | 97.5
46 | Cc1[nH]c(=O)[nH]c(=O)c1CC(=O)NCC1CCN(c2ccccc2F)C1 (stereo not shown) [CBK304325] | 99.7
47 | CCCOc1c(Cl)cc(/C=C2\N=C(c3ccc(OC)cc3)OC2=O)cc1OCC [CBK098846] | 93.3
48 | Cc1cccc2c3c([nH]c12)CCN(C(=O)[C@@H]1C[C@@H]2C=C[C@H]1C2)C3 [CBK281656] | 93.6
49 | Cc1csc(C(=O)N2CCC(c3cc(O)cc(C)n3)CC2)c1 [CBK283466] | 89
50 | CCNC(Cc1ccc2ccccc2c1)C(=O)OC (stereo not shown) [CBK071702] | 109
51 | CC(C)CC(=O)NC(N=C(S)Nc1sc2c(c1C#N)CCCC2)C(Cl)(Cl)Cl (stereo not shown) [CBK261049] | 85.2
52 | Cc1ccc(-n2cccn2)cc1S(=O)(=O)N1CCNCC1C (stereo not shown) [CBK307344] | 85.1
53 | CN1CCN(c2ccc(-c3ccc(Cl)cc3)cn2)CC1 [CBK036945] | 95.2
54 | Cc1ccc(C(=O)N2CCN(S(=O)(=O)c3sc(C(=O)O)c(C)c3C(=O)O)CC2)cc1 [CBK297120] | 91.1
55 | CCCC/C=C/c1nccnc1NCc1ccncc1 [CBK037500] | 108
56 | CC(C)(C)OC(=O)N1CCCC(C(=O)NC2CCCc3ccccc32)C1 (stereo not shown) [CBK305617] | 93.2
57 | COCCCn1c(C)c(C)n2c3c(=O)n(CCN4CCCCC4)c(=O)n(C)c3nc12 [CBK269762] | 102
58 | CCCn1c(SCC(=O)N2CCc3ccccc32)nc(O)cc1=O [CBK305843] | 95.4
59 | C=CCn1c(Cc2csc(NC(=O)c3cnc(SC)n3-c3ccccc3)n2)n[nH]c1=S [CBK297786] | 84.3
60 | O=C(NCCN1CCCC1)C1CCCN(c2nc3c(-c4ccccc4)csc3c(=O)[nH]2)C1 (stereo not shown) [CBK215507] | 109
61 | O=S(=O)(c1ccc2c(c1)nc1n2CCC1)N1CCOCC1 [CBK019200] | 49.6
62 | Cc1cccc(-n2cnc3cc(C(=O)NCc4cccnc4)ccc32)c1 [CBK294455] | 77.5
63 | O=C(Nc1ccc(OC(F)F)cc1)Nc1ncc(Br)c2cccnc12 [CBK107635] | 115

Same assay, conditions: human, hela cells, % viability, bulk resorufin, single well

Row | Structure (SMILES) | viability at 28.5 h, 10 µM [%]
64 | CCOc1ccc(N2C(=O)NC(=O)/C(=C\NC(C)(CO)CO)C2=O)cc1 [CBK261437] | 99.5

Reference: publication PMC12040169 (PLOS Biology, 2025)
